# Species: Rattus norvegicus
# Assay: Open TG-GATES - Regimen: Daily Repeat
# Assay type: toxicity, organism-based, Sprague-Dawley
# Design: regimen Daily Repeat, gender Male, age 6 weeks
# Details: in vivo, po, 10 mg/kg, route gavage, dose level Low; for KIDNEY_L / KIDNEY_R / KIDNEY_TOTAL: tissue Kidney; for AST / CRE / GLC / IP / K / LDH / RALB / TBIL / TC / TP / gamma-GTP: tissue Plasma
smiles,measurement,setting,value
CN(C)CCCN1c2ccccc2CCc2ccccc21 [IMIPRAMINE],TERMINAL_BW,"72 h, time 3 day",229.5 g
same,APTT,"72 h, tissue Blood, time 3 day",16.1 s
same,Bas,"72 h, tissue Blood, time 3 day",0%
same,Eos,"72 h, tissue Blood, time 3 day",1%
same,Fbg,"72 h, tissue Blood, time 3 day",294 mg/dL
same,Ht,"72 h, tissue Blood, time 3 day",41.4%
same,Lym,"72 h, tissue Blood, time 3 day",82.6%
same,MCHC,"72 h, tissue Blood, time 3 day",32.5%
same,MCV,"72 h, tissue Blood, time 3 day",65.4 fL
same,Mono,"72 h, tissue Blood, time 3 day",2.8%
same,Neu,"72 h, tissue Blood, time 3 day",12.8%
same,PT,"72 h, tissue Blood, time 3 day",15.9 s
same,Plat,"72 h, tissue Blood, time 3 day",115.2 x10_4/uL
same,RBC,"72 h, tissue Blood, time 3 day",633 x10_4/ul
same,Ret,"72 h, tissue Blood, time 3 day",5.6%
same,KIDNEY_L,"72 h, time 3 day",1 g
same,KIDNEY_R,"72 h, time 3 day",1 g
same,KIDNEY_TOTAL,"72 h, time 3 day",2 g
same,AST,"72 h, time 3 day",67 IU/L
same,CRE,"72 h, time 3 day",0.2 mg/dL
same,GLC,"72 h, time 3 day",185.4 mg/dL
same,IP,"72 h, time 3 day",7.7 mg/dL
same,K,"72 h, time 3 day",4.1 meq/L
same,LDH,"72 h, time 3 day",63.4 IU/L
same,RALB,"72 h, time 3 day",2.6 g/dL
same,TBIL,"72 h, time 3 day",0.06 mg/dL
same,TC,"72 h, time 3 day",81.6 mg/dL
same,TP,"72 h, time 3 day",5.8 g/dL
same,gamma-GTP,"72 h, time 3 day",1 IU/L
same,TERMINAL_BW,"[…], time 7 day",262.8 g
same,TERMINAL_BW,"[…], time 14 day",310.9 g
same,TERMINAL_BW,"[…], time 28 day",402.9 g
same,APTT,"[…], tissue Blood, time 7 day",15.6 s
same,Bas,"[…], tissue Blood, time 7 day",0%
same,Eos,"[…], tissue Blood, time 7 day",1.2%
same,Fbg,"[…], tissue Blood, time 7 day",291.6 mg/dL
same,Ht,"[…], tissue Blood, time 7 day",40.2%
same,Lym,"[…], tissue Blood, time 7 day",80%
same,MCHC,"[…], tissue Blood, time 7 day",33.3%
same,MCV,"[…], tissue Blood, time 7 day",62.5 fL
same,Mono,"[…], tissue Blood, time 7 day",1.8%
same,PT,"[…], tissue Blood, time 7 day",15.9 s
same,Plat,"[…], tissue Blood, time 7 day",120.1 x10_4/uL
same,RBC,"[…], tissue Blood, time 7 day",644.6 x10_4/ul
same,Ret,"[…], tissue Blood, time 7 day",4.8%
same,APTT,"[…], tissue Blood, time 14 day",16.5 s
same,Bas,"[…], tissue Blood, time 14 day",0.2%
same,Eos,"[…], tissue Blood, time 14 day",0.8%
same,Fbg,"[…], tissue Blood, time 14 day",281.2 mg/dL
same,Ht,"[…], tissue Blood, time 14 day",41.8%
same,Lym,"[…], tissue Blood, time 14 day",83.2%
same,MCHC,"[…], tissue Blood, time 14 day",33.8%
same,MCV,"[…], tissue Blood, time 14 day",60.5 fL
same,Mono,"[…], tissue Blood, time 14 day",2.2%
same,PT,"[…], tissue Blood, time 14 day",16.3 s
same,Plat,"[…], tissue Blood, time 14 day",108.3 x10_4/uL
same,RBC,"[…], tissue Blood, time 14 day",691.6 x10_4/ul
same,Ret,"[…], tissue Blood, time 14 day",4.1%
same,APTT,"[…], tissue Blood, time 28 day",17.3 s
same,Bas,"[…], tissue Blood, time 28 day",0.4%
same,Eos,"[…], tissue Blood, time 28 day",1.4%
same,Fbg,"[…], tissue Blood, time 28 day",284.6 mg/dL
same,Ht,"[…], tissue Blood, time 28 day",43.7%
same,Lym,"[…], tissue Blood, time 28 day",81.4%
same,MCHC,"[…], tissue Blood, time 28 day",34%
same,MCV,"[…], tissue Blood, time 28 day",56.5 fL
same,Mono,"[…], tissue Blood, time 28 day",2.4%
same,PT,"[…], tissue Blood, time 28 day",16.4 s
same,Plat,"[…], tissue Blood, time 28 day",96.2 x10_4/uL
same,RBC,"[…], tissue Blood, time 28 day",773.2 x10_4/ul
same,Ret,"[…], tissue Blood, time 28 day",2.3%
same,KIDNEY_L,"[…], time 7 day",1.1 g
same,KIDNEY_R,"[…], time 7 day",1.1 g
same,KIDNEY_TOTAL,"[…], time 7 day",2.1 g
same,KIDNEY_L,"[…], time 14 day",1.3 g
same,KIDNEY_R,"[…], time 14 day",1.2 g
same,KIDNEY_TOTAL,"[…], time 14 day",2.5 g
same,KIDNEY_L,"[…], time 28 day",1.4 g
same,KIDNEY_R,"[…], time 28 day",1.3 g
same,KIDNEY_TOTAL,"[…], time 28 day",2.7 g
same,AST,"[…], time 7 day",63.8 IU/L
same,CRE,"[…], time 7 day",0.2 mg/dL
same,GLC,"[…], time 7 day",182.6 mg/dL
same,IP,"[…], time 7 day",7.4 mg/dL
same,K,"[…], time 7 day",4.2 meq/L
same,LDH,"[…], time 7 day",123.4 IU/L
same,RALB,"[…], time 7 day",2.6 g/dL
same,TBIL,"[…], time 7 day",0.05 mg/dL
same,TC,"[…], time 7 day",75.8 mg/dL
same,TP,"[…], time 7 day",5.9 g/dL
same,gamma-GTP,"[…], time 7 day",0.8 IU/L
same,AST,"[…], time 14 day",66.4 IU/L
same,CRE,"[…], time 14 day",0.2 mg/dL
same,GLC,"[…], time 14 day",175.6 mg/dL
same,IP,"[…], time 14 day",6.8 mg/dL
same,K,"[…], time 14 day",4.3 meq/L
same,LDH,"[…], time 14 day",62.8 IU/L
same,RALB,"[…], time 14 day",2.7 g/dL
same,TBIL,"[…], time 14 day",0.048 mg/dL
same,TC,"[…], time 14 day",72 mg/dL
same,TP,"[…], time 14 day",6.2 g/dL
same,gamma-GTP,"[…], time 14 day",0.4 IU/L
same,AST,"[…], time 28 day",62.2 IU/L
same,CRE,"[…], time 28 day",0.2 mg/dL
same,GLC,"[…], time 28 day",183.2 mg/dL
same,IP,"[…], time 28 day",6.9 mg/dL
same,K,"[…], time 28 day",3.8 meq/L
same,LDH,"[…], time 28 day",53.6 IU/L
same,RALB,"[…], time 28 day",2.8 g/dL
same,TBIL,"[…], time 28 day",0.052 mg/dL
same,TC,"[…], time 28 day",64.2 mg/dL
same,TP,"[…], time 28 day",6.3 g/dL
same,gamma-GTP,"[…], time 28 day",1 IU/L

# From ChEMBL document CHEMBL3885861, “Open TG-GATES”
